Laboratory results from US8920814B2, “Bacterial endotoxin for the prevention of metabolic disorders and bacterial infections” (The Governors of the University of Alberta, priority 2007, dated 2014).

Tests used:
[1] = tested on: transition dairy cows; test: Clinical responses, dry matter intake and milk yield of transition cows given LPS; type: in vivo, Holstein cows; conditions: oral; whole experimental period
Excerpt: We then investigated how transition cows respond clinically to repeated oral and intravenous exposure to an E. coli antigen (E. coli lipopolysaccharide—(“LPS”)) during the 2 weeks before and 1 week after calving, and to determine the effects of repeated oral or intravenous administration of E. coli LPS on eating behaviour and milk yield during the transition period.
During their final 3 wk prepartum, 32 multiparous Holstein cows were housed in a tie-stall barn with wood shavings for bedding, the number at any given time varied depending on the number of cows at that stage of gestation. Cows were blocked based on their parity, previous milk production as well as their expected day of calving and randomly assigned to one of the four treatment groups (8 cows/group) in a randomized blocked design 2 wk before the expected day of calving until 4 wk postpartum. […]
Diets were mixed and offered as TMR individually once a day at 0600 h. Orts were recorded and discarded before the next feeding each day and the amount of feed was adjusted to ensure a 10% feed residual. Cows were milked twice a day at 0400 and 1500 h, and milk yield was recorded electronically every day for the first 28 days of lactation. All clinical disease and medication were recorded daily during the whole experimental period. […]

[2] = tested on: transition dairy cows; test: Clinical incidence of postpartal metabolic disorders after oral vaccination of transition cows; type: in vivo, Holstein cows; conditions: for reduction of the incidence of metabolic disorders: vs oral saline
Excerpt: (§1) During their final 3 wk prepartum, 32 multiparous Holstein cows were housed in a tie-stall barn with wood shavings for bedding, the number at any given time varied depending on the number of cows at that stage of gestation. Cows were blocked based on their parity, previous milk production as well as their expected day of calving and randomly assigned to one of the four treatment groups (8 cows/group) in a randomized blocked design 2 wk before the expected day of calving until 4 wk postpartum. Cows were offered dry-period and early-lactation diets, formulated according to NRC recommendation (2001) for transition dairy cows.
Diets were mixed and offered as TMR individually once a day at 0600 h. Orts were recorded and discarded before the next feeding each day and the amount of feed was adjusted to ensure a 10% feed residual. Cows were milked twice a day at 0400 and 1500 h, and milk yield was recorded electronically every day for the first 28 days of lactation. All clinical disease and medication were recorded daily during the whole experimental period. The experiment was conducted at the University of Alberta Dairy Research and Technology Center, Edmonton, Canada. All cows were managed and treated in accordance with the guidelines established by the Canadian Council on Animal Care (1993) and all animal-related procedures were approved by the University of Alberta Faculty Animal Policy and Welfare Committee.
(§2) The four groups of cows were administered on d 14, 11, 7, and 4 before the expected day of parturition as well as on d 1 and 3 after parturition, one of the following treatments: (1) oral delivery of 2 mL of saline (0.15 M NaCl), (2) oral delivery of 2 mL of saline containing lipopolysaccharide (LPS) from Escherichia coli 0111:B4 (Sigma, St. Louis, Mo.), (3) intravenous delivery of 100 mL of saline (0.15 M NaCl), or (4) intravenous delivery of 100 mL of saline containing LPS from E. coli 0111:B4. A 5 mL syringe was used for administration of treatment into the oral cavity. The amount of LPS given to cows orally or intravenously (iv) was as follows: (1) on d 14 and 11 before the expected day of parturition 0.01 μg/kg of BW dissolved in 2 mL (oral) or 100 mL (iv) of saline, (2) on d 7 and 4 before the expected day of parturition 0.05 μg/kg of BW dissolved in 2 mL (oral) or 100 mL (iv) of saline, and (3) on d 1 and 3 after parturition 0.1 μg/kg of BW dissolved in 2 mL (oral) or 100 mL (iv) of saline. Cows were given one flat dose of LPS based on the 650 kg average body weight of cows at Dairy Research and Technology Transfer. Rectal temperature, respiration rate, and rumen contraction was measured from all cows 15 min before as well as 60, 120, 180, 240, 300, and 360 min after administration of treatment.

[3] = tested on: transition dairy cows; test: Plasma metabolites, minerals and acute phase proteins of transition cows given LPS; type: in vivo, Holstein cows; conditions: oral
Excerpt: as §1, §2
A catheter was introduced into the jugular vein 1 h before the administration of treatment to all cows in the experiment. Blood samples were obtained from the jugular catheter 15 min before as well as at 15, 30, 60, 120, 180, 240, 300, and 360 min after administration of treatment on d 14, 11, 7, and 4 before the expected day of parturition as well as on d 1 and 3 after parturition. Also, 1 single blood sample was obtained during d 10, 17, and 24 after parturition.
(§3) Blood was collected into 10-ml Vacutainer tubes (Beckton Dickinson and Co., Rutherford, N.J.) containing K3-EDTA, and plasma was prepared by centrifugation within 20 min. Plasma samples were stored at −20° C. until analyzed for concentrations of serum amyloid A (SAA), lipopolysaccharide-binding protein (LBP), haptoglobin, C-reactive protein (CRP), glucose, insulin, non-esterified fatty acids (NEFA), beta-hydroxybutyric acid (BHBA), lactate, cholesterol, cortisol, calcium, copper, iron, zinc as well as anti-LPS immunoglobulin A, G, and M.

[4] = tested on: transition dairy cows; test: Plasma anti-LPS immunoglobulins A, G and M of transition cows given oral LPS; type: in vivo, Holstein cows; conditions: around parturition
Excerpt: as §1
The four groups of cows were administered on d 14, 11, 7, and 4 before the expected day of parturition as well as on d 1 and 3 after parturition, one of the following treatments: (1) oral delivery of 2 mL of saline (0.15 M NaCl), (2) oral delivery of 2 mL of saline containing lipopolysaccharide (LPS) from Escherichia coli 0111:B4 (Sigma, St. Louis, Mo.), (3) intravenous delivery of 100 mL of saline (0.15 M NaCl), or (4) intravenous delivery of 100 mL of saline containing LPS from E. coli 0111:B4. A 5 mL syringe was used for administration of treatment into the oral cavity. […] Rectal temperature, respiration rate, and rumen contraction was measured from all cows 15 min before as well as 60, 120, 180, 240, 300, and 360 min after administration of treatment. […]
as §3

[5] = tested on: rumen tissue; test: Ussing chamber permeability of rumen tissue to 3H-mannitol and LPS; type: cell-based, feedlot steers; conditions: for increase of permeability of rumen tissue to 3H-mannitol: acidic pH 4.5 and presence of LPS (500 μg/mL), Ussing chamber
Excerpt: FIG. 5 is a graph depicting permeability of rumen tissue (obtained from killed feedlot steers) to ^3H-labeled mannitol under different pH values and in the presence (▪) or absence (□) of lipopolysaccharide (LPS) from E. coli B:055 in an Ussing chamber.
FIG. 7 is a graph depicting translocation of LPS across rumen tissue (obtained from killed feedlot steers) under different pH values and in the presence (▪) or absence (□) of lipopolysaccharide (LPS) from E. coli B:055 in an Ussing chamber.
(§4) Accordingly, we investigated whether common rumen fluid and colon concentrations of lipopolysaccharide (LPS) would affect the permeability of rumen and colon tissues to mannitol and LPS in Ussing chambers. In addition, this study was designed to answer the question whether acidic conditions similar to those found in the rumen fluid and colon during conditions of sub-acute and acute acidosis would affect the permeability of rumen and colon tissues to mannitol and LPS.
(§5) Mannitol is a monosaccharide with a molecular weight of 182 daltons and normally is not metabolized by mammalian tissues. Mannitol normally goes through mucosal tissues in small amounts and has been used to evaluate the integrity of mucosal barriers. […] Both acidic pH and presence of LPS disrupts mucosal membranes and make them leaky to bacteria and toxic compounds like endotoxin.
(§6) This means that LPS went through the mucosal membranes (rumen and colon tissues) independently of the pH value.

[6] = tested on: colon tissue; test: Ussing chamber permeability of colon tissue to 3H-mannitol and LPS; type: cell-based, feedlot steers; conditions: for increase of permeability of colon tissue to 3H-mannitol: acidic pH 5.5 and presence of LPS (500 μg/mL), Ussing chamber
Excerpt: FIG. 6 is a graph depicting permeability of colon tissue (obtained from killed feedlot steers) to ^3H-labeled mannitol under different pH values and in the presence (▪) or absence (□) of lipopolysaccharide (LPS) from E. coli B:055 in an Ussing chamber.
FIG. 8 is a graph depicting translocation of LPS across colon tissue (obtained from killed feedlot steers) under different pH values and in the presence (▪) or absence (□) of lipopolysaccharide (LPS) from E. coli B:055 in an Ussing chamber.
as §4, §5, §6

[7] = during 6 h after administration, first week after parturition
[8] = listed as lipopolysaccharide (LPS) from Escherichia coli 0:B55

Question: What does the source list for “lipopolysaccharide (LPS) from Escherichia coli 0111:B4 [LPS from E. coli 0111:B4]”?
Answer: dry matter intake vs control cows [1]: no differences; clinical record of individual cow ([2]; oral LPS group, one cow per block): Normal—Calved day 1, Lameness day 44, Mastitis day 71; reduction of the incidence of metabolic disorders ([2]; oral, after 30 d of parturition): 66%; cows affected by metabolic disorders ([2]; oral, first 30 days after parturition): not affected by any metabolic disorders; cows of the group affected (lameness and mastitis) ([2]; oral, more than 30 days after parturition, one cow): 12%; reduction of the incidence of metabolic disorders ([2]; oral, within the first 30 d after parturition): 100%; plasma glucose concentration vs control cows ([3]; 2 wk before and 1 wk after calving): did not change and were higher; plasma insulin vs control cows ([3]; around parturition): higher; plasma zinc ([3]; around parturition): prevented the decline; plasma copper ([3]; before and after calving): no changes; plasma BHBA concentration vs control cows [3, 7]: lower; plasma NEFA concentration vs control cows [3, 7]: lower; plasma cholesterol concentration vs control cows ([3]; during the 6 h after treatment, last day of the vaccination): Higher; plasma lipopolysaccharide-binding protein (LBP) vs control cows ([3]; especially first 3 days after calving): higher in control cows than in vaccinated ones; plasma serum amyloid A (SAA) vs control group ([3]; experimental period): no significant differences; plasma cholesterol concentration vs control cows ([3]; experimental period / first week after parturition): did not change between the two groups; plasma glucose concentration vs control cows ([3]; first week after calving, before and after vaccination (FIG. 17)): higher; increase of plasma concentration of anti-LPS immunoglobulin M (IgM) [4]: several fold; plasma IgA antibodies against endotoxin vs control cows [4]: lower in vaccinated cows compared with the control ones, although the difference did not reach significant level; plasma anti-endotoxin IgG antibodies vs control cows [4]: lower

Question: What does the source list for “lipopolysaccharide (LPS) from E. coli B:055 [LPS from E. coli strain B:055]”?
Answer: increase of permeability of rumen tissue to 3H-mannitol [5]: increase several fold; increase of permeability of rumen tissue to 3H-mannitol [5, 8]: 4 fold; effect on permeability of rumen tissue to mannitol ([5]; pH values between 5.5 and 7.4): did not affect; increase of permeability of colon tissue to 3H-mannitol [6]: increase several fold; increase of permeability of colon tissue to 3H-mannitol [6, 8]: 5 fold; effect on permeability of colon tissue to mannitol ([6]; pH values between 5.5 and 7.4): did not affect
